# In patent publication US20230211030A1, “SYSTEMS AND METHODS FOR DISINFECTING PLUMBING FIXTURES AND ROOMS WITH PLUMBING FIXTURES” (priority 2021, published 2023):
# Read-outs that look alike come from different tables or passages of the source.
# Test system: living organisms
# Settings: for ATP results, Under Rim, front: Before 74; for ATP results, Bowl Surface, left: Before 81; for ATP results, Bowl Surface, front: Before 91; for ATP results, Handle: Before 225; for ATP results, Tub Floor, right of drain: Before 6204
# Source text: First, a control module or control system was constructed using a Raspberry Pi computer with 7 inch touchscreen monitor, Arduino microcontroller, two electronic breadboards, power supplies, and other electrical interfaces. A computer program written in Python receives inputs from the user via a convenient, single-screen input graphic on the touch screen. The graphic allows the user to independently specify the times that disinfecting fluid is dispensed to the sink, toilet, and shower by pressing up and down keys to increase or decrease minutes and seconds for each time. The time between disinfection cycles or cycle time is also input in the same manner. The graphic allows the chemical pump, 3-MD SC made by Little Giant Pump Co., to be enabled or disabled with the touch of a button. A button to start and stop the disinfecting cycle and also an output telling the user what part of the cycle is being run and how much time is left with that part of the cycle is also provided on the graphic interface screen. […] All chemical lines were made from half inch ID PVC reinforced tubing. Half inch stainless steel ball valves manufactured by U.S. Solid were installed in each branch to each plumbing fixture to control the on/off flow to each plumbing fixture, with the valve electronic actuators being wired to the control module and controlled by the program. The distribution structure conduit or tubing at the plumbing fixtures was customized to the shape and location of each plumbing fixture and was attached to each plumbing fixture in the following manner. […] A plexiglass backsplash was constructed about ten inches in height and 14 inches in width, plus partitions on either side protruding forward from the back panel at 45 degrees to help guide disinfecting fluid into the sink basin. The backsplash was held down to the countertop by a bead of silicone caulk, and the upper branch of tubing was mounted on this backsplash above the faucet. […] Holes were drilled in the tubing into which Quarter Circle Fan Micro Spray nozzles made by Mister Landscaper and available at Lowes were inserted and directed to either spray downward to coat the sink walls directly under the nozzles with disinfecting fluid or outward to spray disinfecting fluid into the sink basin on the opposite side of the sink. […] In this tubing, eleven Half Circle Fan Micro Spray nozzles were inserted with ten directed outwards toward the inner surfaces of the toilet bowl and one directed downwards so as to spray fluid onto a relatively large surface of the toilet bowl in the front of the toilet that sloped more gently and was not easily contacted by spray directed towards the sides. […] The program was configured to first apply disinfecting fluid to the sink for the time inputted for the sink, then the toilet, then the shower. When the cycle begins, the program first opens the ball valve to allow fluid to flow to a particular plumbing fixture, and then the pump is turned on and remains on until the end of the dispensing time, at which point the pump is turned off and the valve is closed. This sequence then repeats sequentially until all three plumbing fixtures have received the prescribed time of disinfecting fluid application.
# [1] = Inside Toilet Bowl, After 3.5 Days, 40 secs each hour
# [2] = Inside Toilet Bowl, After 6.5 days (40 secs each hour for 3.5 days then 30s each hour for another 3 days)
substance,measurement,setting,value
hydrogen peroxide [1% H2O2],"ATP results, Bowl Surface, rear","Inside Toilet Bowl, After 3.5 Days, 40 secs each hour, Before 17",3 RLU
same,"ATP results, Under Rim, right","Inside Toilet Bowl, After 3.5 Days, 40 secs each hour, Before 26",3 RLU
same,"ATP results, Under Rim, front",[1],15 RLU
same,"ATP results, Bowl Surface, left",[1],5 RLU
same,"ATP results, Bowl Surface, front",[1],21 RLU
same,"ATP results, Bowl Surface (above water), right","Inside Toilet Bowl, After 3.5 Days, 40 secs each hour, Before 173",7 RLU
same,"ATP results, Under Rim, left","Inside Toilet Bowl, After 3.5 Days, 40 secs each hour, Before 258",1 RLU
same,"ATP results, Under Rim, rear","Inside Toilet Bowl, After 3.5 Days, 40 secs each hour, Before 3083",2 RLU
same,"ATP results, Under Rim, front",[2],2 RLU
same,"ATP results, Bowl Surface, left",[2],3 RLU
same,"ATP results, Bowl Surface, front",[2],5 RLU
same,"ATP results, Handle","Shower/Tub, After 3.5 Days, 40 secs each hour, disinfectant missed handle until adjustments were made",5381^2 RLU
same,"ATP results, Tub Floor Center","Shower/Tub, After 3.5 Days, 40 secs each hour, Before 1789, remained high due to soap scum not being removed",557^3 RLU
same,"ATP results, Tub Floor, left of drain","Shower/Tub, After 3.5 Days, 40 secs each hour, Before 4511",38 RLU
same,"ATP results, Tub Floor, right of drain","Shower/Tub, After 3.5 Days, 40 secs each hour",8 RLU
same,"ATP results, Inside Drain","Shower/Tub, After 3.5 Days, 40 secs each hour, Before 6559",6 RLU
same,"ATP results, Top of Drain Plug and Drain Collar","Shower/Tub, After 3.5 Days, 40 secs each hour, Before 6941",38 RLU
same,"ATP results, Handle","Shower/Tub, After 6.5 days (40 secs each hour for 3.5 days then 30s each hour for another 3 days), after spray adjusted to hit handle",16 RLU
same,"ATP results, Tub Floor, right of drain","Shower/Tub, After 6.5 days (40 secs each hour for 3.5 days then 30s each hour for another 3 days)",22 RLU
same,"ATP results, Sink Basin, Right of Drain","Sink, After 3.5 Days, 40 secs each hour, Before 770",13 RLU
same,"ATP results, Sink Counter, left of faucet","Sink, After 3.5 Days, 40 secs each hour, Before 1876",6 RLU
same,"ATP results, Inside Drain Collar Wall","Sink, After 3.5 Days, 40 secs each hour, Before 1951",10 RLU
same,"ATP results, Top of Drain Plug and Drain Collar","Sink, After 3.5 Days, 40 secs each hour, Before 4351",46 RLU
same,"ATP results, Drain Plug, Down Inside Drain (avg)","Sink, After 3.5 Days, 40 secs each hour, Before 6863",95 RLU
